Read-outs that look alike come from different tables or passages of the source.
Assays:
[1] = test system: LOX IMVI; assay: NCI one-dose assay; type: cell-based; details: Homo sapiens, Melanoma, read-out: Cell growth inhibition %
[2] = test system: MCF7; assay: NCI one-dose assay; type: cell-based; details: Homo sapiens, MCF7, Breast cancer, read-out: Cell growth inhibition %
[3] = test system: NCI-H460; assay: NCI one-dose assay; type: cell-based; details: Homo sapiens, NCI-H460, Non-small cell lung cancer, read-out: Cell growth inhibition %
[4] = test system: HL-60(TB); assay: NCI one-dose assay; type: cell-based; details: Homo sapiens, Leukemia, read-out: Cell growth inhibition %
[5] = test system: RPMI-8226; assay: NCI one-dose assay; type: cell-based; details: Homo sapiens, RPMI-8226, Leukemia, read-out: Cell growth inhibition %
[6] = test system: NCI-H322M; assay: NCI one-dose assay; type: cell-based; details: Homo sapiens, Non-small cell lung cancer, read-out: Cell growth inhibition %
[7] = test system: NCI-H226; assay: NCI one-dose assay; type: cell-based; details: Homo sapiens, NCI-H226, Non-small cell lung cancer, read-out: Cell growth inhibition %
[8] = test system: SF-268; assay: NCI one-dose assay; type: cell-based; details: Homo sapiens, SF-268, CNS cancer, read-out: Cell growth inhibition %
[9] = test system: M14; assay: NCI one-dose assay; type: cell-based; details: Homo sapiens, M14, Melanoma, read-out: Cell growth inhibition %
[10] = test system: PC-3; assay: NCI one-dose assay; type: cell-based; details: Homo sapiens, PC-3, Prostate cancer, read-out: Cell growth inhibition %
[11] = test system: SK-MEL-28; assay: NCI one-dose assay; type: cell-based; details: Homo sapiens, SK-MEL-28, Melanoma, read-out: Cell growth inhibition %
[12] = test system: NCI-H522; assay: NCI one-dose assay; type: cell-based; details: Homo sapiens, NCI-H522, Non-small cell lung cancer, read-out: Cell growth inhibition %
[13] = test system: A549/ATCC; assay: NCI one-dose assay; type: cell-based; details: Homo sapiens, Non-small cell lung cancer, read-out: Cell growth inhibition %
[14] = test system: COLO 205; assay: NCI one-dose assay; type: cell-based; details: Homo sapiens, COLO 205, Colon cancer, read-out: Cell growth inhibition %
[15] = test system: OVCAR-3; assay: NCI one-dose assay; type: cell-based; details: Homo sapiens, OVCAR-3, Ovarian cancer, read-out: Cell growth inhibition %
[16] = test system: U251; assay: NCI one-dose assay; type: cell-based; details: Homo sapiens, U-251, U251, CNS cancer, read-out: Cell growth inhibition %
[17] = test system: EKVX; assay: NCI one-dose assay; type: cell-based; details: Homo sapiens, Non-small cell lung cancer, read-out: Cell growth inhibition %
[18] = test system: ACHN; assay: NCI one-dose assay; type: cell-based; details: Homo sapiens, Renal cancer, read-out: Cell growth inhibition %
[19] = test system: SF-295; assay: NCI one-dose assay; type: cell-based; details: Homo sapiens, SF-295, CNS cancer, read-out: Cell growth inhibition %
[20] = test system: MALME-3M; assay: NCI five-dose assay; type: cell-based, human; details: Melanoma; for GI50: read-out: GI50 Conc. per Cell Lines
[21] = test system: A498; assay: NCI one-dose assay; type: cell-based, human; details: Homo sapiens, A498, A498, Renal cancer, read-out: Cell growth inhibition %
Experimental: (§1) The National Cancer Institute (NCI), Bethesda, USA, selected the final compounds 6a–j and 7a–j for in vitro anticancer screening. An initial in vitro single-dose anticancer experiment was performed with the entire NCI 60 cell lines derived from nine tumor subpanel cancer cell lines. The results for each compound were illustrated as a mean graph showing the percentage growth of treated cells compared to untreated control cells (see Supplementary Materials).
(§2) The NCI anticancer screening process has been thoroughly detailed. The Drug Evaluation Branch of the National Cancer Institute in Bethesda, […], USA, established the procedure and conducted the anticancer assay on 60 human tumor cell lines from nine neoplastic cancers.

[22] = test system: HOP-92; assay: NCI one-dose assay; type: cell-based, human; details: Homo sapiens, HOP-92, HOP-92, Non-small cell lung cancer, read-out: Cell growth inhibition %
Experimental: as §1, §2

[23] = test system: 786-0; assay: NCI one-dose assay; type: cell-based, human; details: Homo sapiens, 786-0, 786-0, Renal cancer, read-out: Cell growth inhibition %
Experimental: as §1, §2

[24] = test system: UO-31; assay: NCI one-dose assay; type: cell-based, human; details: Homo sapiens, UO-31, UO-31, Renal cancer, read-out: Cell growth inhibition %
Experimental: as §1, §2

[25] = test system: Renal cancer subpanel; assay: NCI five-dose assay, subpanel mean; type: cell-based, human; details: for GI50: Homo sapiens, average sensitivity of all cell lines of the Renal cancer subpanel, read-out: GI50 Subpanel MID b; for GI50 Selectivity Ratio (MID a/MID b): Renal cancer subpanel
[26] = test system: K-562; assay: NCI five-dose assay; type: cell-based, human; details: K-562, Leukemia; for CC50 / GI50: Homo sapiens, K562; for CC50: 48 h, read-out: LC50 (the source's name); for GI50: read-out: GI50 Conc. per Cell Lines
[27] = test system: ACHN; assay: NCI five-dose assay; type: cell-based, human; details: Renal cancer; for LC50 / GI50: Homo sapiens; for LC50: 48 h; for GI50: read-out: GI50 Conc. per Cell Lines
[28] = test system: CAKI-1; assay: NCI five-dose assay; type: cell-based, human; details: CAKI-1, Renal cancer; for LC50 / GI50: Homo sapiens; for LC50: 48 h; for GI50: read-out: GI50 Conc. per Cell Lines
[29] = test system: SF-268; assay: NCI five-dose assay; type: cell-based, human; details: SF-268, CNS cancer; for CC50 / GI50: Homo sapiens; for CC50: 48 h, read-out: LC50 (the source's name); for GI50: read-out: GI50 Conc. per Cell Lines
[30] = test system: NCI 60 cell lines; assay: NCI one-dose assay, full panel; type: cell-based, human; details: Homo sapiens, 60 cell, read-out: cell growth inhibition percentage, range
Experimental: as §1, §2

[31] = test system: EKVX; assay: NCI five-dose assay; type: cell-based, human; details: Non-small cell lung cancer; for CC50 / GI50: Homo sapiens; for CC50: 48 h, read-out: LC50 (the source's name); for GI50: read-out: GI50 Conc. per Cell Lines

## Cc1ccc(C(=O)CSc2nnc(-c3c[nH]c4ccccc34)n2-c2ccccc2)cc1 [Compound 6h, 2-((5-(1H-Indol-3-yl)-4-phenyl-4H-1,2,4-triazol-3-yl)thio)-1-(p-tolyl)ethenone]
[1]
  inhibition at 10 µM: 120%
[2]
  inhibition at 10 µM: 87.5%
[3]
  inhibition at 10 µM: 70.7%
[4]
  inhibition at 10 µM: 56.6%
[5]
  inhibition at 10 µM: 41.1%
[6]
  inhibition at 10 µM: 25.1%
[7]
  inhibition at 10 µM: 141%
[8]
  inhibition at 10 µM: 70.3%
[9]
  inhibition at 10 µM: 48.9%
[10]
  inhibition at 10 µM: 57%
[11]
  inhibition at 10 µM: 51%
[12]
  inhibition at 10 µM: 98.6%
[13]
  inhibition at 10 µM: 46.7%
[14]
  inhibition at 10 µM: 25%
[15]
  inhibition at 10 µM: 34.8%
[16]
  inhibition at 10 µM: 90.2%
[17]
  inhibition at 10 µM: 47%
[18]
  inhibition at 10 µM: 79.6%
[19]
  inhibition at 10 µM: 88.9%
[20]; Homo sapiens
  GI50: 16.2 µM
[20]
  TGI Conc. per Cell Lines: 36.20 µM
[21]
  inhibition at 10 µM: 14.2%
[22]
  inhibition at 10 µM: 108%
[23]
  inhibition at 10 µM: 135%
[24]
  inhibition at 10 µM: 69.7%
[25]
  GI50: 17 µM
  GI50 Selectivity Ratio (MID a/MID b): 1.13
[26]
  CC50: > 100 µM
  GI50: 22.1 µM
  TGI Conc. per Cell Lines: ˃100 µM
[27]
  LC50: 62.3 µM
  GI50: 13.7 µM
  TGI Conc. per Cell Lines: 29.20 µM
[28]
  TGI Conc. per Cell Lines: 29.80 µM
  LC50: 59.4 µM
  GI50: 14.9 µM
[29]
  CC50: > 100 µM
  GI50: 24.2 µM
  TGI Conc. per Cell Lines: 78.90 µM
[30]; ten cancer cell lines with complete cell death
  inhibition at 10 µM: 101 to 141%
[30]; twenty-five cell lines
  inhibition at 10 µM: 67 to 99%
[31]
  CC50: > 100 µM
  GI50: 19 µM
  TGI Conc. per Cell Lines: 98.90 µM

## O/N=C(\CSc1nnc(-c2c[nH]c3ccccc23)n1-c1ccccc1)c1ccccc1 [Compound 7f, (Z)-2-((5-(1H-Indol-3-yl)-4-phenyl-4H-1,2,4-triazol-3-yl)thio)-1-phenylethanone Oxime]
[1]
  inhibition at 10 µM: 59%
[2]
  inhibition at 10 µM: 58.9%
[3]
  inhibition at 10 µM: 66%
[4]
  inhibition at 10 µM: 75.3%
[5]
  inhibition at 10 µM: 68.1%
[6]
  inhibition at 10 µM: 35%
[7]
  inhibition at 10 µM: 56.7%
[8]
  inhibition at 10 µM: 23.1%
[9]
  inhibition at 10 µM: 54.2%
[10]
  inhibition at 10 µM: 75.9%
[11]
  inhibition at 10 µM: 45.5%
[12]
  inhibition at 10 µM: 46.2%
[13]
  inhibition at 10 µM: 46.9%
[14]
  inhibition at 10 µM: 47.1%
[15]
  inhibition at 10 µM: 45%
[16]
  inhibition at 10 µM: 46.2%
[17]
  inhibition at 10 µM: 73.6%
[18]
  inhibition at 10 µM: 58.4%
[19]
  inhibition at 10 µM: 60.8%
[21]
  inhibition at 10 µM: 14.8%
[22]
  inhibition at 10 µM: 82.7%
[23]
  inhibition at 10 µM: 17.9%
[24]
  inhibition at 10 µM: 71.6%

## COc1ccc(/C(CSc2nnc(-c3c[nH]c4ccccc34)n2-c2ccccc2)=N/O)cc1 [Compound 7g, (Z)-2-((5-(1H-Indol-3-yl)-4-phenyl-4H-1,2,4-triazol-3-yl)thio)-1-(4-methoxyphenyl) Ethanone Oxime]
[1]
  inhibition at 10 µM: 178%
[2]
  inhibition at 10 µM: 85.5%
[3]
  inhibition at 10 µM: 82.8%
[4]
  inhibition at 10 µM: 96.1%
[5]
  inhibition at 10 µM: 90.2%
[6]
  inhibition at 10 µM: 63.6%
[7]
  inhibition at 10 µM: 81.8%
[8]
  inhibition at 10 µM: 51.5%
[9]
  inhibition at 10 µM: 71.1%
[10]
  inhibition at 10 µM: 76.9%
[11]
  inhibition at 10 µM: 62.6%
[12]
  inhibition at 10 µM: 63.5%
[13]
  inhibition at 10 µM: 65.8%
[14]
  inhibition at 10 µM: 63.7%
[15]
  inhibition at 10 µM: 69.5%
[16]
  inhibition at 10 µM: 60.6%
[17]
  inhibition at 10 µM: 84.9%
[18]
  inhibition at 10 µM: 77.7%
[19]
  inhibition at 10 µM: 79%
[21]
  inhibition at 10 µM: 30.2%
[22]
  inhibition at 10 µM: 71.8%
[23]
  inhibition at 10 µM: 40.3%
[24]
  inhibition at 10 µM: 81.8%

## Cc1ccc(/C(CSc2nnc(-c3c[nH]c4ccccc34)n2-c2ccccc2)=N/O)cc1 [Compound 7h, (Z)-2-((5-(1H-Indol-3-yl)-4-phenyl-4H-1,2,4-triazol-3-yl)thio)-1-(p-tolyl)ethanone Oxime]
[1]
  inhibition at 10 µM: 188%
[2]
  inhibition at 10 µM: 155%
[3]
  inhibition at 10 µM: 98%
[4]
  inhibition at 10 µM: 114%
[5]
  inhibition at 10 µM: 119%
[6]
  inhibition at 10 µM: 142%
[7]
  inhibition at 10 µM: 141%
[8]
  inhibition at 10 µM: 160%
[9]
  inhibition at 10 µM: 164%
[10]
  inhibition at 10 µM: 147%
[11]
  inhibition at 10 µM: 37.5%
[12]
  inhibition at 10 µM: 76.2%
[13]
  inhibition at 10 µM: 81.6%
[14]
  inhibition at 10 µM: 87.6%
[15]
  inhibition at 10 µM: 85.3%
[16]
  inhibition at 10 µM: 89.6%
[17]
  inhibition at 10 µM: 71.8%
[18]
  inhibition at 10 µM: 162%
[19]
  inhibition at 10 µM: 150%
[20]; Homo sapiens, 48 h, read-out: LC50 (the source's name)
  CC50: 59.1 µM
[20]; Homo sapiens
  GI50: 2.26 µM
[20]
  TGI Conc. per Cell Lines: 5.57 µM
[21]
  inhibition at 10 µM: 8.13%
[22]
  inhibition at 10 µM: 106%
[23]
  inhibition at 10 µM: 97.8%
[24]
  inhibition at 10 µM: 93.5%
[25]
  GI50: 5.77 µM
  GI50 Selectivity Ratio (MID a/MID b): 0.52
[26]
  CC50: > 100 µM
  GI50: 2.01 µM
  TGI Conc. per Cell Lines: 4.97 µM
[27]
  LC50: 6.26 µM
  GI50: 1.79 µM
  TGI Conc. per Cell Lines: 3.35 µM
[28]
  TGI Conc. per Cell Lines: 3.06 µM
  LC50: 5.74 µM
  GI50: 1.63 µM
[29]
  CC50: > 100 µM
  GI50: 1.99 µM
  TGI Conc. per Cell Lines: 4.66 µM
[30]; sixteen cell lines
  inhibition at 10 µM: 72 to 98%
[30]; thirty-six cell lines with complete cell death
  inhibition at 10 µM: 106 to 200%
[31]
  CC50: > 100 µM
  GI50: 2.15 µM
  TGI Conc. per Cell Lines: 5.58 µM

From article PMC11859928, “Design, Synthesis, and Antiproliferative Activity of Novel Indole/1,2,4-Triazole Hybrids as Tubulin Polymerization Inhibitors” (Pharmaceuticals, 2025)
